Measured values: patent US6043248A, “Alpha-substituted pyrimidine-thioalkyl and alkylether compounds as inhibitors of viral reverse transcriptase” (priority 1997, dated 2000)

Target: T1, P236L viral reverse transcriptase (Human immunodeficiency virus type 1 group M subtype B, UniProt P04585, P823L)
T1 construct: P236L viral reverse transcriptase is obtained by PNAS 90: 4713-4717 (1993); made in house
Experiment: inhibition of viral reverse transcriptase (P236L), cell free assay
Type: biochemical
Details: 30 minutes at 37° C., read-out: IC50 (Table I, P236L)
From the text: The utility of the pyrimidine-thioalkyl and alkylether anti-AIDS compounds of Formula IA of this invention can be determined by their ability to inhibit viral reverse transcriptase, an enzyme essential for human immunodeficiency virus replication. This enzyme has characteristics which differentiate it from other known cellular polymerases and it is a unique enzyme which is not found in uninfected cells. Viral reverse transcriptase (Wild Type) is found in extracts from bacterial clones prepared according to the procedure described in AIDS Virus Reverse Transcriptase defined by high level expression in Escherichia coli, EMBO J. 6:3133-3137 (1987). P236L viral reverse transcriptase is obtained by PNAS 90: 4713-4717 (1993). Inhibition of this enzyme is determined in a cell free assay which measures the level of radioactive precursors incorporated into DNA. Extracts prepared according to the procedure of Science, 1125-1129 (1981) are incubated in a mixture of inhibitor, 20 mM dithiothreitol, 60 mM sodium chloride, 0.05% NP-40, 10 mM magnesium chloride, 50 mM Tris pH 8.3, 10 μM [^35 S]-labeled deoxynuleoside-5'-triphosphate, 10 μg/ml RNA template (poly rC or poly rG) and 5 μg/ml DNA primer (oligo dG or oligo dT) for 30 minutes at 37° C. Incorporation of radio-labeled percursor is determined by spotting aliquots of the reaction mixture on DE81 paper, washing the papers to remove unincorporated percursor, drying and determining counts. The results (IC50 means the concentration, in μM of drug, required to inhibit the reverse transcriptase activity (P236L and Wild Type) to the extent of 50%) of various assay(s) are combined and reported as % inhibition and/or IC50 (calculated) in Table I (P236L) and Table II (Wild Type).

Molecule | IC50 [nM]
Nc1cc(Cl)nc(SCc2cc3ccccc3cn2)n1 [Example 182, 4-Amino-6-chloro-2-[(isoquinolin-3-ylmethyl)thio]pyrimidine] | 20
CC(C)c1ccnc(CSc2nc(N)c(Br)c(Cl)n2)c1 [Example 166, 4-amino-5-bromo-6-chloro-2-[2-(4-isopropyl)pyridylmethylthio]-pyrimidine] | 20
Nc1cc(Cl)nc(SCc2cc(CO)ccn2)n1 [Example 164, 4-amino-6-chloro-2-[2-(4-hydroxymethyl)-pyridylmethylthio]-pyrimidine] | 1000
Nc1cc(Cl)nc(SCc2cccc(F)c2)n1 [Example 41, 4-amino-6-chloro-2-(3-fluorophenylmethylthio)-pyrimidine] | 200
Nc1nc(SCc2ccc3ccccc3c2)nc(Cl)c1F [Example 91, 4-amino-5-fluoro-6-chloro-2-(2-naphthylmethylthio)-pyrimidine] | 2500
Cc1ccnc(CSc2nc(N)c(Br)c(Cl)n2)c1 [Example 165, 4-amino-5-bromo-6-chloro-2-[2-(4-methyl)pyridylmethylthio]-pyrimidine] | 50
Nc1cc(Cl)nc([S+]([O-])Cc2cccc(Br)c2)n1 (stereo not drawn) [Example 67, 4-amino-6-chloro-2-(3-bromophenylmethylsulfinyl)pyrimidine] | 25000
CCC(CC)c1ccnc(CSc2nc(N)cc(Cl)n2)c1 [Example 151, 4-amino-6-chloro-2-[2-(4-(3-pentyl))pyridylmethylthio]-pyrimidine] | 60
Nc1cc(Cl)nc(SCc2ccc3cc(F)c(F)cc3c2)n1 [Example 60, 4-amino-6-chloro-2-(6,7-difluoro-2-naphthylmethylthio)-pyrimidine] | 10000
Nc1cc(Cl)nc(SCc2c(Cl)cccc2Cl)n1 [Example 167, 4-amino-6-chloro-2-(2,6-dichlorophenyl)methylthio-pyrimidine] | 5000
CC(C)(C)c1ccc(CSc2nc(N)cc(Cl)n2)cc1 [Example 47, 4-amino-6-chloro-2-(4-t-butylphenylmethylthio)-pyrimidine] | 1000
COC(=O)c1ccnc(CSc2nc(N)cc(Cl)n2)c1 [Example 156, 4-amino-6-chloro-2-[2-(4-carbomethoxy)pyridylmethylthio]-pyrimidine] | 100
Cc1cc(CSc2nc(N)cc(Cl)n2)nc(N(C)C)c1 [Example 154, 4-amino-6-chloro-2-[2-(6-dimethylamino-4-methyl)pyridylmethylthio]-pyrimidine] | 50
Nc1cc(Cl)nc(SCc2cccc([N+](=O)[O-])c2)n1 [Example 45, 4-amino-6-chloro-2-(3-nitrophenylmethylthio)-pyrimidine] | 110
4-Amino-6-chloro-2-[[(5-chloroimidazo[1,2-a]pyridin-2-yl)methyl]thio]-pyrimidine [Example 172] | 50000
Nc1cc(Cl)nc(SCc2cc(Cl)cc(Cl)c2)n1 [Example 50, 4-amino-6-chloro-2-(3,5-dichlorophenylmethylthio)-pyrimidine] | 330
Nc1nc(SCc2ccccc2)nc(Cl)c1C1CCCCC1 [Example 53, 4-amino-6-chloro-5-cyclohexyl-2-(benzylthio)-pyrimidine] | 15000
Cc1cc(CSc2nc(N)cc(Cl)n2)ncn1 [Example 130, 4-amino-6-chloro-2-[4-(6-methyl)pyrimidinylmethylthio]-pyrimidine] | 800
NC(=O)c1ccnc(CSc2nc(N)cc(Cl)n2)c1 [Example 163, 4-amino-6-chloro-2-[2-(4-carboxamido)-pyridylmethylthio]-pyrimidine] | 20000
CC(C)c1ccnc(CSc2nc(N)cc(Cl)n2)c1 [Example 132, 4-amino-6-chloro-2-[2-(4-isopropyl)pyridylmethylthio]-pyrimidine] | 20

Same assay, conditions: IC50 (Table I, P236L), 30 minutes at 37° C.

Molecule | IC50 [nM]
Nc1cc(Cl)nc(SCc2nc3ccccc3s2)n1 [Example 99, 4-amino-6-chloro-2-(2-benzothiazolomethylthio)-pyrimidine] | 500
